Read-outs that look alike come from different tables or passages of the source.
How the values were obtained:
mouse = assay: Acute toxicity in the mouse, oral administration; format: in vivo
Method: (§1) Acute toxicity was evaluated in the mouse by administering the compounds orally at scalar doses to a maximum of 1000 mg/kg to evaluate the 50% lethal dose (LD50). The compounds were administered in carboxymethylcellulose (0.5%) in a volume of […] to male mice (Swiss stock) of average weight 20 g.

[1] = Acute toxicity in the mouse, oral administration; format: in vivo; conditions: mouse, in vivo, po, 1000 mg/kg, oral, 1000 mg/kg/os; read-out: mortality (%EAD)
Method: as §1

[2] = system: passive cutaneous anaphylaxis; assay: PCA test on the rat, time response curve after oral administration; format: in vivo, rat (male Sprague Dawley); conditions: for inhibition in vivo at 1 mg/kg / inhibition in vivo at 30 mg/kg / inhibition in vivo at 100 mg/kg: Rattus norvegicus; for inhibition in vivo at 1 mg/kg: 1 mg/kg/os; for inhibition in vivo at 30 mg/kg: read-out: inhibition %; for inhibition in vivo at 100 mg/kg: 100 mg/kg/os
Method: (§2) The serum, obtained from rats actively sensitized with ovalbumin (antigen) and suitably diluted, was injected intradermically into the shaven back of male Sprague Dawley rats (2 wheals per rat).
(§3) The rats were treated intravenously after 24 hours with a solution of ovalbumin and Evans blue. Thirty minutes later they were killed and the diameter and intensity of the blue ring formed at the site of the intradermic injection were measured.
(§4) For each treated group (5 per group) the % inhibition was then calculated with respect to the control group.
(§5) For intravenous administration (2 ml/kg), those compounds in which R1 =H (see formula I) were dissolved in an aqueous 1% NaHCO3 solution whereas for oral administration (4 ml/Kg) they were either suspended in 0.5% carboxymethylcellulose or dissolved in an aqueous 3% NaHCO3 solution.

[3] = system: passive cutaneous anaphylaxis; assay: PCA test on the rat, intravenous administration just before challenge with antigen; format: in vivo, rat (male Sprague Dawley); conditions: for ED50: read-out: ED50 (conf. lim) P = 0.05; for inhibition (%) / ED50 (conf. lim) P = 0.05: i.v.
Method: as §2, §3, §4
The pharmacological screening was effected by administering the compounds of the present invention intravenously and orally.
as §5

[4] = system: passive cutaneous anaphylaxis; assay: PCA test on the rat, oral administration before challenge with antigen; format: in vivo, rat (male Sprague Dawley); conditions: for inhibition in vivo at 0.3 mg/kg / inhibition in vivo at 1 mg/kg / inhibition in vivo at 3 mg/kg / ED50 / inhibition in vivo at 10 mg/kg / inhibition in vivo at 30 mg/kg: Rattus norvegicus, po; for inhibition in vivo at 3 mg/kg / inhibition in vivo at 10 mg/kg / inhibition in vivo at 30 mg/kg: read-out: inhibition (%); for ED50: Table 2, oral administration, read-out: ED50 (conf. lim) P = 0.05; for oral bioavailability (in words): from ED50 os / ED50 iv comparison; for ED50 OS/ED50 iv: oral 5 minutes before challenge / i.v. immediately before challenge
Method: The serum, obtained from rats actively sensitized with ovalbumin (antigen) and suitably diluted, was injected intradermically into the shaven back of male Sprague Dawley rats (2 wheals per rat). The rats were treated intravenously after 24 hours with a solution of ovalbumin and Evans blue. Thirty minutes later they were killed and the diameter and intensity of the blue ring formed at the site of the intradermic injection were measured. […] The pharmacological screening was effected by administering the compounds of the present invention intravenously and orally. For intravenous administration (2 ml/kg), those compounds in which R1 =H (see formula I) were dissolved in an aqueous 1% NaHCO3 solution whereas for oral administration (4 ml/Kg) they were either suspended in 0.5% carboxymethylcellulose or dissolved in an aqueous 3% NaHCO3 solution.

[5] = system: passive cutaneous anaphylaxis; conditions: oral, cited from earlier work
[6] = in vivo; cited from earlier work
[7] = 5 min, oral, 5 minutes before challenge
[8] = 0.25 h, oral, 15 minutes before challenge
[9] = 0.5 h, oral, 30 minutes before challenge
[10] = 1 h, oral, 60 minutes before challenge
[11] = 2 h, oral, 120 minutes before challenge
[12] = Rattus norvegicus, iv, immediately before challenge
[13] = 3 mg/kg, 5 minutes before challenge
[14] = 5 min, 5 minutes before challenge
[15] = Rattus norvegicus, iv, 1 mg/kg, immediately before challenge, read-out: inhibition (%)
[16] = Rattus norvegicus, iv, 3 mg/kg, immediately before challenge
[17] = 10 mg/kg, 5 minutes before challenge
[18] = 5 min, oral, 30 mg/kg/os, 5 minutes before challenge
[19] = 0.25 h, oral, 30 mg/kg/os, 15 minutes before challenge
[20] = 0.5 h, oral, 30 mg/kg/os, 30 minutes before challenge
[21] = 1 h, oral, 30 mg/kg/os, 60 minutes before challenge
[22] = 2 h, oral, 30 mg/kg/os, 120 minutes before challenge
[23] = 30 mg/kg, 5 minutes before challenge
[24] = Rattus norvegicus, iv, read-out: inhibition (%)

| Structure (SMILES) | No. (dead) (mouse; oral, 1000 mg/kg/os, 8 treated) | mortality [1] | ED50 [3, 12] | inhibition in vivo at 3 mg/kg [4, 13] | ED50 [4, 14] | ED50 OS/ED50 iv [4] | No. (dead) (mouse; mouse, in vivo, po, 1000 mg/kg) | inhibition in vivo at 1 mg/kg [3, 15] | inhibition in vivo at 3 mg/kg [3, 16] | inhibition in vivo at 10 mg/kg [3, 12] | inhibition in vivo at 10 mg/kg [4, 17] | inhibition in vivo at 30 mg/kg [2, 18] | inhibition in vivo at 30 mg/kg [2, 19] | inhibition in vivo at 30 mg/kg [2, 20] | inhibition in vivo at 30 mg/kg [2, 21] | inhibition in vivo at 30 mg/kg [2, 22] | inhibition in vivo at 30 mg/kg [4, 23] | further results |
| --- | --- | --- | --- | --- | --- | --- | --- | --- | --- | --- | --- | --- | --- | --- | --- | --- | --- | --- |
| Cc1cccc(C(=O)Nc2nn[nH]n2)n1 [TA 57-07, 6-methyl-N-(1H-tetrazol-5-yl)-2-pyridinecarboxyamide, reference compound] | 4 | 50% | 0.059 mg/kg | 82.5% | 0.93 mg/kg | 15.76 |  |  |  |  |  |  |  |  |  |  |  | inhibition in vivo at 1 mg/kg [2, 7]: 86.8%; inhibition in vivo at 1 mg/kg [2, 8]: 43.7%; inhibition in vivo at 1 mg/kg [2, 9]: 37.6%; inhibition in vivo at 1 mg/kg [2, 10]: 17.3%; inhibition in vivo at 1 mg/kg [2, 11]: 4.1%; inhibition in vivo at 0.3 mg/kg ([4]; 5 minutes before challenge): 12.7%; inhibition in vivo at 1 mg/kg ([4]; 5 minutes before challenge): 57.7%; oral bioavailability (in words) [4]: less bioavailable when administered orally than the compounds of the present invention; ED50 ([5]; 5 minutes before challenge, Tsuzurahara et al.): 0.9 (0.6-1.6) mg/kg/os |
| Cc1ccc(/C=C/C(=O)Nc2nn[nH]n2)o1 [VAL 47-073, N-1H-tetrazol-5-yl-[3-[5-methyl-(2-furyl)]]-acrylamide trans isomer] |  | 0% | 3.13 mg/kg | 87.5% | 0.92 mg/kg | 0.29 | 0 | 3.4% | 50.7% | 95.1% | 89.3% |  |  |  |  |  |  | toxicity (in words) (mouse; oral, mouse): do not determine any toxic effect; inhibition in vivo at 1 mg/kg [2, 7]: 52.6%; inhibition in vivo at 1 mg/kg [2, 8]: 7.8%; inhibition in vivo at 1 mg/kg [2, 9]: 19.8%; inhibition in vivo at 1 mg/kg [2, 10]: 0%; inhibition in vivo at 1 mg/kg [2, 11]: 0%; inhibition in vivo at 0.3 mg/kg ([4]; 5 minutes before challenge): 22%; inhibition in vivo at 1 mg/kg ([4]; 5 minutes before challenge): 44% |
| Cc1ccc(/C=C/C(=O)Nc2nn[nH]n2)s1 [VAL 47-005, N-1H-tetrazol-5-yl-[3-[5-methyl-(2-thienyl)]] acrylamide trans isomer] |  | 0% | 2.99 mg/kg |  | 12.4 mg/kg | 4.13 | 0 | 20.3% | 43.4% | 89.4% | 43.8% | 75.5% | 61.4% | 37.5% | 0% | 11.4% | 75.3% | inhibition (%) ([4]; oral, 3 mg/kg, 5 minutes before challenge): 9.6% |
| O=C(/C=C/c1ccnc2ccccc12)Nc1nn[nH]n1 [VAL 47-067, N-1H-TETRAZOL-5-YL-[3-(4-QUINOLYL)] […] ISOMER] | 1 | 12.5% |  |  |  |  |  |  |  |  |  |  |  |  |  |  |  | inhibition in vivo at 30 mg/kg ([2]; po, 5 min): 50.5%; inhibition in vivo at 30 mg/kg ([2]; po, 0.25 h): 29.3%; inhibition in vivo at 30 mg/kg ([2]; po, 0.5 h): 13.3%; inhibition in vivo at 30 mg/kg ([2]; po, 1 h): 0%; inhibition in vivo at 30 mg/kg ([2]; po, 2 h): 0%; ED50 ([3]; Rattus norvegicus, iv): 0.35 mg/kg; inhibition in vivo at 0.1 mg/kg [3, 24]: 1.1%; inhibition in vivo at 0.3 mg/kg [3, 24]: 53.6%; inhibition in vivo at 1 mg/kg [3, 24]: 81.8%; inhibition in vivo at 3 mg/kg [4]: 8.3%; inhibition in vivo at 10 mg/kg [4]: 0%; inhibition in vivo at 30 mg/kg [4]: 16.7% |
| O=C([O-])c1cc(=O)c2c(OCC(O)COc3cccc4oc(C(=O)[O-])cc(=O)c34)cccc2o1.[Na+].[Na+] [DSCG, Disodium chromoglycate, reference compound] |  |  |  |  |  |  |  |  |  |  |  |  |  |  |  |  |  | absorption at the gastro-enteric level [6]: not being absorbed at the gastro-enteric level; inhibition (%) ([3]; 0.1 mg/kg, immediately before challenge): 28.1%; inhibition (%) ([3]; 0.3 mg/kg, immediately before challenge): 33.6%; inhibition (%) ([3]; 1 mg/kg, immediately before challenge): 70.0%; inhibition (%) ([3]; 3 mg/kg, immediately before challenge): 100%; ED50 (conf. lim) P = 0.05 ([3]; immediately before challenge): 0.52 mg/kg/iv; ED50 (conf. lim) P = 0.05 ([3]; immediately before challenge, listed as D.S.C.G.): 0.52 (0.47-0.83) mg/kg/iv |
| O=C(/C=C/c1ccco1)Nc1nn[nH]n1 [VAL 47-010, N-1H-tetrazol-5-yl-[3-(2-furyl)]-acrylamide trans isomer] |  | 25% | 3.13 mg/kg | 9.6% | 12.4 mg/kg | 3.95 | 2 | 29% | 40.2% | 84.1% | 35.9% | 51.4% | 44.8% | 21.9% | 6.6% | 18.6% | 80.9% | inhibition in vivo at 30 mg/kg [3, 12]: 95.3% |
| COc1ccc(/C=C/C(=O)Nc2ccccc2C(=O)O)cc1OC [Tranilast, N-(3', 4'-dimethoxycinnamoyl) anthranylic acid, reference compound] | 7 | 87.5% |  |  |  |  |  |  |  |  |  |  |  |  |  |  |  | inhibition in vivo at 100 mg/kg [2, 7]: 17.9%; inhibition in vivo at 100 mg/kg [2, 8]: 37.4%; inhibition in vivo at 100 mg/kg [2, 9]: 20.5%; inhibition in vivo at 100 mg/kg [2, 10]: 20.5%; inhibition in vivo at 100 mg/kg [2, 11]: 13.7%; time of administration before challenge giving the peak (maximum) effect ([2]; oral): 15 min; ED50 ([4]; 0.25 h, 15 minutes before challenge): 115 mg/kg; oral bioavailability (in words) [4]: less bioavailable when administered orally than the compounds of the present invention; activity compared with Tranilast / compounds of the invention (in words) ([4]; oral): less active by at least one order of magnitude; ED50 ([5]; 2 hours before challenge, Koda et al.): 150 (88, 3-255) mg/kg/os |
| O=C(/C=C/c1ccc(Br)s1)Nc1nn[nH]n1 [VAL 47-008, N-1H-tetrazol-5-yl-[3-[5-bromo-(2-thienyl)]]-acrylamide trans isomer] | 0 | 0% | 12.8 mg/kg | 32.5% |  |  |  | 0% | 8.6% | 31.9% | 26.9% | 37.7% | 16% | 10.9% | 3.4% | 2.3% | 43.7% | inhibition in vivo at 30 mg/kg [3, 12]: 82.3% |
| O=C(/C=C/c1cccs1)Nc1nn[nH]n1 [VAL 47-024, N-1H-tetrazol-5-yl-[3-(2-thienyl)] acrylamide trans isomer] | 0 | 0% | 2.29 mg/kg | 30.2% |  |  |  | 18.1% | 64.9% | 100% | 53.8% | 43.5% | 52.7% | 46.7% | 30.4% | 10.9% | 53.3% |  |
